One data set concerns the target T1, B1 bradykinin receptor (Homo sapiens, UniProt P46663).
T1 sequence (P46663 whole entry): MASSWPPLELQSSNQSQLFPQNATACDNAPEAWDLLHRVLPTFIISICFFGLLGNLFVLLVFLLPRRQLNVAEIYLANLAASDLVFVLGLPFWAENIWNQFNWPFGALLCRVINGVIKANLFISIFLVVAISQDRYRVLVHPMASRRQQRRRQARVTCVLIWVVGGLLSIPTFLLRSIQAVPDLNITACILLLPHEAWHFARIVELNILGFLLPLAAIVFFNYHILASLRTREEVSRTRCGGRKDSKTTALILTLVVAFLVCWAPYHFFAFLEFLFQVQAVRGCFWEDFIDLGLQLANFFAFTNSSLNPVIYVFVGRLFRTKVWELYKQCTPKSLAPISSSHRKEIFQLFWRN
Briefly: Binding affinity against Human bradykinin receptor B1.

Data set [1] is described as follows: Partition coefficient (logP). As to conditions: octanol/water.
A short description of data set [2]: Half life in Sprague Dawley rats. It counts as ADME. As to conditions: rat, in vivo.
Data set [3] is described as follows: Protein binding using 10% human serum. It counts as ADME. Conditions: for fraction unbound: 10% human serum, read-out: Protein binding (converted).
Data set [4] in a line: Clearance in Sprague Dawley rats. It counts as ADME, organism-based. As to conditions: rat, in vivo.
Data set [5] is described as follows: Volume of distribution was determined in Sprague Dawley rats. Format: ADME, organism-based. As to conditions: rat, in vivo.
A short description of data set [6]: Bioavailability of compound upon oral administration of 10 mg/kg (dose) in Sprague Dawley rat. Format: ADME, organism-based. Conditions: in vivo.

Where only a bound is given, the exact number is not on record here.

For the molecule `COC(=O)c1ccccc1C1CCC(CNc2nccc(C)c2NC(=O)CC#N)CC1` (stereo unspecified), the inhibition constant (Ki) at B1 bradykinin receptor was 385 nM. The molecule also showed a lipophilicity (logP) in data set [1] (logP) of 2.7.

`Cc1noc([C@H]2CC=CC[C@@H]2c2ccc(CNc3nccc(C)c3NC(=O)CC#N)cc2)n1` registered an inhibitory constant (Ki) on B1 bradykinin receptor of 2 nM. In data set [2], this molecule had a half-life of 1.2 h. The fraction unbound in data set [3] is 0.08. The molecule also yielded a clearance in data set [4] of 17 mL/min/kg. The same molecule yielded a Vd in data set [5] of 0.47 L/kg. The molecule further came in with a bioavailability in data set [6] of 18%. Further, the lipophilicity (logP) in data set [1] (logP) came out at 2.4.

`COC(=O)c1ccccc1-c1ccc(CNc2nccc(C)c2NC(=O)CC#N)cc1` gave a Ki on B1 bradykinin receptor of 11 nM. Also, the half-life in data set [2] is 1.9 h. Besides, the fraction unbound in data set [3] is 0.01. The same molecule yielded a clearance in data set [4] of 4.3 mL/min/kg. The molecule further had a Vd in data set [5] of 0.36 L/kg. The bioavailability in data set [6] amounted to 18%. Besides, the lipophilicity (logP) in data set [1] (logP) was found to be 2.5.

`COC(=O)c1ccccc1N1CC=C(CNc2nccc(C)c2NC(=O)CC#N)CC1` gave an inhibitory constant (Ki) on B1 bradykinin receptor of 130 nM.

As to `COC(=O)C1=C(c2ccc(CNc3nccc(C)c3NC(=O)CC#N)cc2)CCCC1`, affinity at B1 bradykinin receptor was put at a Ki of 35 nM. Further, the fraction unbound in data set [3] was 0.04. Moreover, in data set [1] (logP), the lipophilicity (logP) came to 3.

For `COC(=O)c1ccccc1N1CCC(CNc2nccc(C)c2NC(=O)CC#N)CC1`, the inhibitory constant (Ki) at B1 bradykinin receptor was found to be 13 nM. Moreover, in data set [3], the fraction unbound is 0.07. In data set [1] (logP), the logP was 2.1.

On B1 bradykinin receptor, `COC(=O)N1CCCCC1c1ccc(CNc2nccc(C)c2NC(=O)CC#N)cc1` (stereo unspecified) returned a Ki above 5000 nM.

At B1 bradykinin receptor, `COC(=O)C1CCCCN1c1ccc(CNc2nccc(C)c2NC(=O)CC#N)cc1` (stereo unspecified) gave an inhibition constant (Ki) above 5000 nM. Moreover, the fraction unbound in data set [3] is 0.22. Besides, the logP in data set [1] (logP) was 2.7.

`COC(=O)c1ccccc1N1CCC(C)(CNc2nccc(C)c2NC(=O)CC#N)CC1` showed a Ki on B1 bradykinin receptor of 3500 nM. For the same molecule, the fraction unbound in data set [3] was 0.1. The molecule also registered a logP in data set [1] (logP) of 2.6.

Regarding `COC(=O)c1ccccc1N1CCC(O)(CNc2nccc(C)c2NC(=O)CC#N)CC1`, the inhibitory constant (Ki) on B1 bradykinin receptor is above 5000 nM. This molecule also gave a half-life in data set [2] of 3 h. In addition, in data set [3], the fraction unbound is 0.35. The same molecule gave a clearance in data set [4] of 2.2 mL/min/kg. In data set [5], this molecule gave a volume of distribution (Vd) of 0.24 L/kg. Also, in data set [6], the bioavailability is 22%.

Turning to `COC(=O)C1CCCN1c1ccc(CNc2nccc(C)c2NC(=O)CC#N)cc1` (stereo unspecified), the Ki on B1 bradykinin receptor was above 5000 nM.

In turn, `COC(=O)C1=C(c2ccc(CNc3nccc(C)c3NC(=O)CC#N)cc2)CCC1` returned an inhibition constant Ki on B1 bradykinin receptor of 126 nM. This counts as sub-micromolar.

`COC(=O)c1cccn1-c1ccc(CNc2nccc(C)c2NC(=O)CC#N)cc1`: the inhibition constant Ki at B1 bradykinin receptor was 250 nM. For the same molecule, in data set [3], the fraction unbound was 0.19. In data set [1] (logP), this molecule had a log partition coefficient (logP) of 2.4.

Turning to `COC(=O)c1ccccc1C1=CCC(CNc2nccc(C)c2NC(=O)CC#N)CC1` (stereo unspecified), at B1 bradykinin receptor, the affinity, expressed as Ki, was 25 nM. In data set [3], the fraction unbound is 0.01. The molecule further yielded a logP in data set [1] (logP) of 2.5.

Take `COC(=O)C1CCCCC1c1ccc(CNc2nccc(C)c2NC(=O)CC#N)cc1` (racemic): on B1 bradykinin receptor, the inhibitory constant (Ki) was determined as 2.2 nM. Further, in data set [2], the half-life is 0.5 h. The fraction unbound in data set [3] is 0.05. In data set [4], this molecule gave a clearance of 30 mL/min/kg. In addition, in data set [5], the Vd turned out to be 0.38 L/kg. The bioavailability in data set [6] was found to be 4%. In addition, the logP in data set [1] (logP) was 2.7.

As for `COC(=O)C1C2CCC(C2)C1c1ccc(CNc2nccc(C)c2NC(=O)CC#N)cc1` (racemic), at B1 bradykinin receptor, the affinity, expressed as Ki, was 730 nM.

`COC(=O)C1C2CCC(CC2)C1c1ccc(CNc2nccc(C)c2NC(=O)CC#N)cc1` (racemic) showed a Ki at B1 bradykinin receptor of 54 nM. Besides, in data set [1], the logP amounted to 3.4.

`COC(=O)C1CC=CCC1c1ccc(CNc2nccc(C)c2NC(=O)CC#N)cc1` (racemic; cis): the Ki on B1 bradykinin receptor is 7 nM. In data set [3] (serum), the Protein binding is reported as 96%. The same molecule displayed a logP in data set [1] of 3.3.

At B1 bradykinin receptor, `COC(=O)C1C2C=CC(CC2)C1c1ccc(CNc2nccc(C)c2NC(=O)CC#N)cc1` (racemic; form 1) gave a Ki of 142 nM. Moreover, the lipophilicity (logP) in data set [1] turned out to be 3.1.

Consider `COC(=O)C1C2C=CC(CC2)C1c1ccc(CNc2nccc(C)c2NC(=O)CC#N)cc1` (racemic; form 2), for which, at B1 bradykinin receptor, affinity was put at a Ki of 38 nM.

On B1 bradykinin receptor, `COC(=O)C1CC=CCC1c1ccc(CNc2nccc(C)c2NC(=O)CC#N)cc1` (racemic; trans) displayed a Ki of 0.83 nM. The half-life in data set [2] was 1 h. The fraction unbound in data set [3] is 0.04. This molecule returned a clearance in data set [4] of 29 mL/min/kg. This molecule displayed a volume of distribution (Vd) in data set [5] of 0.55 L/kg. In data set [6], this molecule came in with a bioavailability of 5%. This molecule showed a logP in data set [1] (logP) of 2.7.

In turn, `COC(=O)C1CC=CCC1c1ccc(CNc2nccc(C)c2NC(=O)CC#N)cc1` (single isomer, unassigned; (+)) had a Ki on B1 bradykinin receptor of 1.3 nM. The same molecule registered a lipophilicity (logP) in data set [1] of 2.3.

Take `COC(=O)C1CC=CCC1c1ccc(CNc2nccc(C)c2NC(=O)CC#N)cc1` (stereo in doubt; (-)18): on B1 bradykinin receptor, the Ki was determined as 1 nM. Further, in data set [1], the log partition coefficient (logP) was 2.4.

The values above are taken from ChEMBL document CHEMBL1142801, “Bradykinin B1 antagonists: SAR studies in the 2,3-diaminopyridine series” (Bioorg Med Chem Lett, 2005).
